Test results published in US12077503B2, “Substituted cyclic amides and their use as herbicides” (FMC CORPORATION, priority 2015, dated 2024).

Key:
Assay type in all cases: in vivo
[1] = system: barnyardgrass (Echinochloa crus-galli); assay: Test G Pre-Emergence Protocol; conditions: Echinochloa crus-galli, pre-emergence, 312 h, evaluated after 13 days; for pest or weed control at 15.625 g/ha: 15.625 g ai/ha; for pest or weed control at 15.625 g/ha / pest or weed control at 250 g/ha: read-out: Barnyardgrass damage rating (100=total damage to plant; 0=no damage to plant); for pest or weed control at 62.5 g/ha: 62.5 g ai/ha, 100=total damage to plant, 0=no damage to plant, read-out: Barnyardgrass damage rating; for pest or weed control at 250 g/ha: 250 g ai/ha
Method in brief: (§1)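 Pre-emergence spray, 15.625/62.5/250 g/ha, vehicle acetone:water 50:50 + 0.5% Tween 20, applied 1 d after sowing. Glasshouse 24/16° C, 14 h light, 65% RH, watered twice daily. Visual damage rating at 13 d, 0–100 scale.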

[2] = system: corn (Zea mays); assay: Test G Pre-Emergence Protocol; conditions: Zea mays, pre-emergence, 312 h, evaluated after 13 days; for plant injury at 15.625 g/ha: 15.625 g ai/ha; for plant injury at 15.625 g/ha / plant injury at 250 g/ha: read-out: Corn damage rating (100=total damage to plant; 0=no damage to plant); for plant injury at 62.5 g/ha: 62.5 g ai/ha, 100=total damage to plant, 0=no damage to plant, read-out: Corn damage rating; for plant injury at 250 g/ha: 250 g ai/ha
Method in brief: as §1

[3] = system: giant foxtail (Setaria faberi); assay: Test G Pre-Emergence Protocol; conditions: Setaria faberi, pre-emergence, 312 h, evaluated after 13 days; for pest or weed control at 15.625 g/ha: 15.625 g ai/ha; for pest or weed control at 15.625 g/ha / pest or weed control at 250 g/ha: read-out: Foxtail, Giant damage rating (100=total damage to plant; 0=no damage to plant); for pest or weed control at 62.5 g/ha: 62.5 g ai/ha, 100=total damage to plant, 0=no damage to plant, read-out: Foxtail, Giant damage rating; for pest or weed control at 250 g/ha: 250 g ai/ha
Method in brief: as §1

[4] = system: ivy-leaved morning glory (Ipomoea hederacea); assay: Test G Pre-Emergence Protocol; conditions: Ipomoea, pre-emergence, 312 h, evaluated after 13 days; for pest or weed control at 15.625 g/ha: 15.625 g ai/ha; for pest or weed control at 15.625 g/ha / pest or weed control at 250 g/ha: read-out: Morningglory, Ivy-leaved damage rating (100=total damage to plant; 0=no damage to plant); for pest or weed control at 62.5 g/ha: 62.5 g ai/ha, 100=total damage to plant, 0=no damage to plant, read-out: Morningglory, Ivy-leaved damage rating; for pest or weed control at 250 g/ha: 250 g ai/ha
Method in brief: as §1

[5] = system: redroot pigweed (Amaranthus retroflexus); assay: Test G Pre-Emergence Protocol; conditions: Amaranthus retroflexus, pre-emergence, 312 h, evaluated after 13 days; for pest or weed control at 15.625 g/ha: 15.625 g ai/ha; for pest or weed control at 15.625 g/ha / pest or weed control at 250 g/ha: read-out: Pigweed, Redroot damage rating (100=total damage to plant; 0=no damage to plant); for pest or weed control at 62.5 g/ha: 62.5 g ai/ha, 100=total damage to plant, 0=no damage to plant, read-out: Pigweed, Redroot damage rating; for pest or weed control at 250 g/ha: 250 g ai/ha
Method in brief: as §1

[6] = system: velvetleaf (Abutilon theophrasti); assay: Test G Pre-Emergence Protocol; conditions: Abutilon theophrasti, pre-emergence, 312 h, evaluated after 13 days; for pest or weed control at 15.625 g/ha: 15.625 g ai/ha; for pest or weed control at 15.625 g/ha / pest or weed control at 250 g/ha: read-out: Velvetleaf damage rating (100=total damage to plant; 0=no damage to plant); for pest or weed control at 62.5 g/ha: 62.5 g ai/ha, 100=total damage to plant, 0=no damage to plant, read-out: Velvetleaf damage rating; for pest or weed control at 250 g/ha: 250 g ai/ha
Method in brief: as §1

[7] = system: barnyardgrass (Echinochloa crus-galli); assay: Test G Post-Emergence Protocol; conditions: Echinochloa crus-galli, post-emergence, 312 h, read-out: Barnyardgrass damage rating; for pest or weed control at 15.625 g/ha: 15.625 g ai/ha, evaluated after 13 days (100=total damage to plant; 0=no damage to plant); for pest or weed control at 62.5 g/ha: 62.5 g ai/ha; for pest or weed control at 62.5 g/ha / pest or weed control at 250 g/ha: evaluated after 13 days, 100=total damage to plant, 0=no damage to plant; for pest or weed control at 250 g/ha: 250 g ai/ha
Method in brief: (§2)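 Values are percent visual injury at 13 days after treatment (0 none, 100 total). Treatment was a post-emergence spray at 15.625, 62.5 or 250 g/ha on 8-day-old pot plants kept at 24/16 °C.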

[8] = system: corn (Zea mays); assay: Test G Post-Emergence Protocol; conditions: Zea mays, post-emergence, 312 h, read-out: Corn damage rating; for plant injury at 15.625 g/ha: 15.625 g ai/ha, evaluated after 13 days (100=total damage to plant; 0=no damage to plant); for plant injury at 62.5 g/ha: 62.5 g ai/ha; for plant injury at 62.5 g/ha / plant injury at 250 g/ha: evaluated after 13 days, 100=total damage to plant, 0=no damage to plant; for plant injury at 250 g/ha: 250 g ai/ha
Method in brief: as §2

[9] = system: giant foxtail (Setaria faberi); assay: Test G Post-Emergence Protocol; conditions: Setaria faberi, post-emergence, 312 h, read-out: Foxtail, Giant damage rating; for pest or weed control at 15.625 g/ha: 15.625 g ai/ha, evaluated after 13 days (100=total damage to plant; 0=no damage to plant); for pest or weed control at 62.5 g/ha: 62.5 g ai/ha; for pest or weed control at 62.5 g/ha / pest or weed control at 250 g/ha: evaluated after 13 days, 100=total damage to plant, 0=no damage to plant; for pest or weed control at 250 g/ha: 250 g ai/ha
Method in brief: as §2

[10] = system: ivy-leaved morning glory (Ipomoea hederacea); assay: Test G Post-Emergence Protocol; conditions: Ipomoea, post-emergence, 312 h, read-out: Morningglory, Ivy-leaved damage rating; for pest or weed control at 15.625 g/ha: 15.625 g ai/ha, evaluated after 13 days (100=total damage to plant; 0=no damage to plant); for pest or weed control at 62.5 g/ha: 62.5 g ai/ha; for pest or weed control at 62.5 g/ha / pest or weed control at 250 g/ha: evaluated after 13 days, 100=total damage to plant, 0=no damage to plant; for pest or weed control at 250 g/ha: 250 g ai/ha
Method in brief: as §2

[11] = system: redroot pigweed (Amaranthus retroflexus); assay: Test G Post-Emergence Protocol; conditions: Amaranthus retroflexus, post-emergence, 312 h, read-out: Pigweed, Redroot damage rating; for pest or weed control at 15.625 g/ha: 15.625 g ai/ha, evaluated after 13 days (100=total damage to plant; 0=no damage to plant); for pest or weed control at 62.5 g/ha: 62.5 g ai/ha; for pest or weed control at 62.5 g/ha / pest or weed control at 250 g/ha: evaluated after 13 days, 100=total damage to plant, 0=no damage to plant; for pest or weed control at 250 g/ha: 250 g ai/ha
Method in brief: as §2

[12] = system: velvetleaf (Abutilon theophrasti); assay: Test G Post-Emergence Protocol; conditions: Abutilon theophrasti, post-emergence, 312 h, read-out: Velvetleaf damage rating; for pest or weed control at 15.625 g/ha: 15.625 g ai/ha, evaluated after 13 days (100=total damage to plant; 0=no damage to plant); for pest or weed control at 62.5 g/ha: 62.5 g ai/ha; for pest or weed control at 62.5 g/ha / pest or weed control at 250 g/ha: evaluated after 13 days, 100=total damage to plant, 0=no damage to plant; for pest or weed control at 250 g/ha: 250 g ai/ha
Method in brief: as §2

SMILES	pest or weed control at 15.625 g/ha [1]	pest or weed control at 62.5 g/ha [1]	pest or weed control at 250 g/ha [1]	plant injury at 15.625 g/ha [2]	plant injury at 62.5 g/ha [2]	plant injury at 250 g/ha [2]	pest or weed control at 15.625 g/ha [3]	pest or weed control at 62.5 g/ha [3]	pest or weed control at 250 g/ha [3]	pest or weed control at 15.625 g/ha [4]	pest or weed control at 62.5 g/ha [4]	pest or weed control at 250 g/ha [4]	pest or weed control at 15.625 g/ha [5]	pest or weed control at 62.5 g/ha [5]	pest or weed control at 250 g/ha [5]	pest or weed control at 15.625 g/ha [6]	pest or weed control at 62.5 g/ha [6]	pest or weed control at 250 g/ha [6]	pest or weed control at 15.625 g/ha [7]	pest or weed control at 62.5 g/ha [7]	further results
Cc1cc(F)ncc1NC(=O)[C@H]1C(=O)N(C)C[C@@H]1c1ccc(C(F)(F)F)cc1 (racemic) [Compound 1733]	0%	20%	70%	0%	20%	80%	10%	80%	90%	0%	20%	80%	0%	70%	80%	0%	50%	80%	0%	0%	pest or weed control at 250 g/ha [7]: 80%; plant injury at 15.625 g/ha [8]: 0%; plant injury at 62.5 g/ha [8]: 50%; plant injury at 250 g/ha [8]: 70%; pest or weed control at 15.625 g/ha [9]: 10%; pest or weed control at 62.5 g/ha [9]: 80%; pest or weed control at 250 g/ha [9]: 80%; pest or weed control at 15.625 g/ha [10]: 20%; pest or weed control at 62.5 g/ha [10]: 60%; pest or weed control at 250 g/ha [10]: 70%; pest or weed control at 15.625 g/ha [11]: 10%; pest or weed control at 62.5 g/ha [11]: 20%; pest or weed control at 250 g/ha [11]: 80%; pest or weed control at 15.625 g/ha [12]: 0%; pest or weed control at 62.5 g/ha [12]: 40%; pest or weed control at 250 g/ha [12]: 80%
CN1C[C@H](c2cccc(C(F)(F)F)c2)[C@@H](C(=O)Nc2cc(C#N)ccn2)C1=O (racemic) [Compound 1735]	0%	0%	0%	0%	0%	0%	0%	0%	0%	0%	0%	0%	0%	0%	0%	0%	0%	0%	0%	0%	pest or weed control at 250 g/ha [7]: 0%; plant injury at 15.625 g/ha [8]: 0%; plant injury at 62.5 g/ha [8]: 0%; plant injury at 250 g/ha [8]: 0%; pest or weed control at 15.625 g/ha [9]: 0%; pest or weed control at 62.5 g/ha [9]: 0%; pest or weed control at 250 g/ha [9]: 0%; pest or weed control at 15.625 g/ha [10]: 0%; pest or weed control at 62.5 g/ha [10]: 0%; pest or weed control at 250 g/ha [10]: 0%; pest or weed control at 15.625 g/ha [11]: 0%; pest or weed control at 62.5 g/ha [11]: 0%; pest or weed control at 250 g/ha [11]: 0%; pest or weed control at 15.625 g/ha [12]: 0%; pest or weed control at 62.5 g/ha [12]: 0%; pest or weed control at 250 g/ha [12]: 0%
